According to ChEMBL document CHEMBL5352500, “HSF1 Pathway Inhibitor Clinical Candidate (CCT361814/NXP800) Developed from a Phenotypic Screen as a Potential Treatment for Refractory Ovarian Cancer and Other Malignancies” (J Med Chem, 2023):
One block for each molecule: values may come before it. Active and inactive are the calls of the source. No cut-off for these calls is given here.

What was measured:
[1] = Unbound AUC (0 to 6 hrs) in BALB/c mouse at 5 mg/kg, po or 5 mg/kg, iv measured for 24 hrs by LC-MS/MS analysis; assay type: ADME, organism-based; conditions: in vivo
Mus musculus = species on record: Mus musculus; conditions: dose 50.0 mg/kg, route po
[2] = Unbound AUC (0 to 6 hrs) in BALB/c mouse at 5 mg/kg, po or 1 mg/kg, iv measured for 24 hrs by LC-MS/MS analysis; assay type: ADME, organism-based; conditions: in vivo
[3] = AUC (0 to 6 hrs) in BALB/c mouse at 5 mg/kg, po measured for 24 hrs by LC-ESI-MS/MS analysis; assay type: ADME, organism-based; design: time 24 hrs, dose 5 mg/kg, route po; conditions: in vivo
[4] = Fraction unbound in BALB/c mouse blood at 5 mg/kg, po or 5 mg/kg, iv measured for 24 hrs by LC-MS/MS analysis; assay type: ADME, organism-based
PA-1 = test: Antiproliferative activity against human PA-1 cells assessed as cell growth inhibition measured after 96 hrs by resazurin dye based celltiter-blue viability assay; assay type: functional
RMG-I = test: Antiproliferative activity against human RMG-I cell line assessed as cell growth inhibition measured after 96 hrs by resazurin dye based celltiter-blue viability assay; assay type: functional
CH1 = test: Antiproliferative activity against human CH1 cells assessed as cell growth inhibition measured after 96 hrs by resazurin dye based celltiter-blue viability assay; assay type: functional
OVCAR-8 = test: Antiproliferative activity against human OVCAR-8 cells assessed as cell growth inhibition measured after 96 hrs by resazurin dye based celltiter-blue viability assay; assay type: functional
OVCAR-5 = test: Antiproliferative activity against human OVCAR-5 cells assessed as cell growth inhibition measured after 96 hrs by resazurin dye based celltiter-blue viability assay; assay type: functional
physchem = conditions: buffer, pH 7.4
OVCAR-3 = test: Antiproliferative activity against human OVCAR-3 cells assessed as cell growth inhibition measured after 96 hrs by resazurin dye based celltiter-blue viability assay; assay type: functional
IGROV-1 = test: Antiproliferative activity against human IGROV-1 cells assessed as cell growth inhibition measured after 96 hrs by resazurin dye based celltiter-blue viability assay; assay type: functional
Caov-3 cell line = test: Antiproliferative activity against human Caov-3 cells assessed as cell growth inhibition measured after 96 hrs by resazurin dye based celltiter-blue viability assay; assay type: functional
[5] = Stability in pooled mouse plasma assessed as drug degradation at 1 uM; assay type: ADME, cell-free
[6] = Reversal of doxorubicin resistance in human doxorubicin resistant CH1 cells assessed as doxorubicin GI50 incubated for 96 hrs by resazurin dye based celltiter-blue cell viability assay (reference value: 310 nM); assay type: functional

fAUC [1]: 0.012 µM·h
Compound: Cc1ccc(NC(=O)c2ccc3c(c2)OCCO3)cc1NC(=O)c1ccc2nc(OCCN3CCCCC3)ccc2c1

Compound: CCN1CCN(Cc2ccc3cc(C(=O)Nc4cc(NC(=O)c5ccc6c(c5)OCCO6)ccc4F)ccc3n2)CC1
inhibition (Mus musculus): Active

fAUC [2]: 0.026 µM·h
Compound: CC(C)N1CCN(Cc2ccc3cc(C(=O)Nc4cc(NC(=O)c5ccc6c(c5)OCCO6)ccc4Cl)ccc3n2)CC1

AUC [3]: 3.9 µM·h | fraction unbound at 24 h [4]: 0.005 | fAUC [1]: 0.02 µM·h
Compound: CCN1CCN(Cc2ccc3cc(C(=O)Nc4cc(NC(=O)c5ccc6c(c5)OCCO6)ccc4Cl)ccc3n2)CC1

GI50 (OVCAR-8): 50.1 nM | GI50 (OVCAR-5): 50.1 nM | logD (physchem): 2.1 | GI50 (OVCAR-3): 50.1 nM | Stability [5]: Stable
Compound: Cc1ccc(NC(=O)c2ccc3c(c2)OCCO3)cc1NC(=O)c1ccc2nc(OCCN3CCCC3)ccc2c1
GI50 (PA-1): 50.1 nM | GI50 (RMG-I): 50.1 nM | GI50 (CH1): 50.1 nM | GI50 (IGROV-1): 50.1 nM | GI50 (Caov-3 cell line): 50.1 nM

Compound: COc1ccc(CCN(C)CCCC(C#N)(c2ccc(OC)c(OC)c2)C(C)C)cc1OC (configuration not stated)
GI50 [6]: 1.9 nM
